The record followed here is patent US20230073214A1, “BIOACTIVE RELEASING MEMBRANE FOR ANALYTE SENSOR” (DexCom, Inc., priority 2021, published 2023).

Data set [1] can be described thus: in vitro bioactive release profile of dexamethasone acetate from bioactive releasing membrane 70 (percent cumulative release by HPLC). In kind it is physicochemical. The note with it: over a time span of 16-35 days. The method, then:
With reference to FIG. 5A, an exemplary in vitro bioactive release profiles for dexamethasone acetate is shown using exemplary bioactive releasing membrane 70. The percent cumulative release of dexamethasone acetate can be determined using HPLC, for example using a Phenomenex Kinetex 5μ EVO C18 100 Å, 50×3.0 mm column held at 25° C. with a 254 nm UV detector and an elution gradient of A: Water with 0.1% formic acid/B: Acetonitrile with 0.1% formic acid (vol/vol), where the gradient from time 0 to 2 minutes is 90% A/10% B; from 2-5 minutes is 10% A/90% B; and from 5 minutes is 90% A/10% B. Dexamethasone acetate and dexamethasone HPLC standards are prepared at concentrations of about 0.1-20 ug/mL.
With reference to FIG. 5B, experimental data of a release rate of a bioactive agent (dexamethasone acetate) from a bioactive releasing membrane 70 initially or during the first time period being greater than the release rate of the bioactive agent from the bioactive releasing membrane initially or during the second time period and the release rate of the bioactive agent from the bioactive releasing membrane initially or during the second time period is greater than the release rate of the bioactive agent from the bioactive releasing membrane initially or during the third time period is shown. […]

Data set [2] can be described thus: additional release experiments with dexamethasone salts in different bioactive releasing membrane combinations. In kind it is physicochemical. Particulars: in a water-soluble cellulosic based polymer.
Description: Additional experiments were carried out using dexamethasone salts in different bioactive releasing membrane combinations.

Molecules are shown by their SMILES.

For the molecule `CC(=O)OCC(=O)[C@@]1(O)[C@H](C)C[C@H]2[C@@H]3CCC4=CC(=O)C=C[C@]4(C)[C@@]3(F)[C@@H](O)C[C@@]21C` [dexamethasone acetate], the “third release rate: release of the remaining amount” value in data set [1] was “approximately 10%”. As for `C[C@@H]1C[C@H]2[C@@H]3CCC4=CC(=O)C=C[C@]4(C)[C@@]3(F)[C@@H](O)C[C@]2(C)[C@@]1(O)C(=O)COP(=O)(O)O` [dexamethasone sodium phosphate], the release profile entry in data set [2] is listed as “bolus release profile”.
